From patent US9309242B2, “Substituted pyrido[2,3-b]pyrazines as FGFR kinase inhibitors” (priority 2011, dated 2016)
pIC50: −log10 of the molar value. Read-outs that look alike come from different tables or passages of the source.

Tests used:
FGFR2 (h) = FGFR2 (h) (Homo sapiens, UniProt P21802); experiment: FGFR2 (enzymatic assay), TR-FRET; type: biochemical; conditions: enzymatic assay, read-out: FGFR 2 pIC50 (converted)
Outline: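 Phosphorylation of 500 nM Btn-Flt3 by human FGFR2 (150 ng/ml) is measured at 0.4 μM ATP. The buffer is 50 mM HEPES pH 7.5 containing 6 mM MnCl2, 1 mM DTT, 0.1 mM Na3VO4 and 0.01% Triton-X-100, and compound is tested at 1% DMSO final.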

FGFR4 (h) = FGFR4 (h) (Homo sapiens, UniProt P22455); experiment: FGFR4 (enzymatic assay), TR-FRET; type: biochemical; conditions: FGFR 4 pIC50, enzymatic assay
[1] = test system: Ba/F3-FGFR1-transfected cells; experiment: Ba/F3-FGFR1 (plus IL3) cellular proliferation assay, counterscreen with 10 ng/ml murine IL3; type: cell-based; conditions: plus IL3 (10 ng/ml murine IL3, counterscreen); read-out: BAF3-FGFR1 (PLUS IL3) pIC50 (converted)
Outline: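 Proliferation read-out: resazurin-based Alamar Blue fluorescence (540/590 nm) after 4 h, following 24 h compound treatment of 20000 Ba/F3-FGFR1 cells per well in 10% FBS RPMI at 37° C. IL3 counterscreen used the same protocol plus 10 ng/ml murine IL3.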

FGFR3 (h) = FGFR3 (h) (Homo sapiens, UniProt P22607); experiment: FGFR3 (enzymatic assay), TR-FRET; type: biochemical; conditions: read-out: FGFR 3 pIC50 (converted)
Source text: Time-Resolved Fluorescence Resonance Energy Transfer (TR-FRET) signal (ex340 nm.

[2] = target: T1, Ba/F3-FGFR3-transfected cells (Homo sapiens, UniProt P22607); experiment: Ba/F3-FGFR3 (minus IL3) cellular proliferation assay, Alamar Blue; type: cell-based
T1 construct: BAF3-FGFR3 (MIN IL3) pIC50; other: minus IL3
Outline: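 Viability readout was resazurin reduction (ex 540/em 590 nm) after 4 h, following 24 h compound treatment at 37 °C of FGFR3-transfected Ba/F3 cells (20000/well, RPMI-1640/10% FBS). IL3-dependent counterscreen used identical conditions plus 10 ng/ml murine IL3.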

[3] = test system: Ba/F3-KDR-transfected cells; experiment: Ba/F3-KDR (plus IL3) cellular proliferation assay, counterscreen with 10 ng/ml murine IL3; type: cell-based; conditions: plus IL3 (10 ng/ml murine IL3, counterscreen); read-out: BAF3-KDR (PLUS IL3) pIC50 (converted)
Outline: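 Cells grown with test compound at 37° C and 5% CO2 for 24 hours were given a resazurin/ferricyanide/ferrocyanide reagent for 4 hours before fluorescence (540/590 nm) was recorded.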

[4] = target: T2, Ba/F3-FGFR1-transfected cells (Homo sapiens, UniProt P11362); experiment: Ba/F3-FGFR1 (minus IL3) cellular proliferation assay, Alamar Blue; type: cell-based
T2 construct: BAF3-FGFR1 (MIN IL3) pIC50; other: minus IL3
Outline: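 Viability was measured by resazurin reduction (fluorescence, 540 nm excitation/590 nm emission) after a 4 h Alamar Blue incubation. This followed 24 h of compound treatment at 37 °C, 5% CO2, of 20000 FGFR1-transfected Ba/F3 cells per well in 10% FBS RPMI-1640.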

[5] = target: Ba/F3-FGFR4-transfected cells (Homo sapiens, UniProt P22455); experiment: Ba/F3-FGFR4 cellular proliferation assay, Alamar Blue; type: cell-based
Outline: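 Here, cells seeded at 20000 per well were treated 24 hours with compound, then given a 4-hour Alamar Blue incubation at 37° C before RFU measurement at ex. 540 nm and em. 590 nm.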

KDR (h) = KDR (h) (Homo sapiens, UniProt P35968); experiment: KDR (VEGFR2) (enzymatic assay), TR-FRET; type: biochemical; conditions: read-out: VEGFR 2 (KDR) pIC50 (converted)
Outline: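 Low-ATP (3 μM) TR-FRET kinase assay using 500 nM Btn-Flt3 peptide and 150 ng/ml enzyme, run 2 h at room temperature with 6 mM MnCl2 and 0.1 mM Na3VO4. Signal from Eu-anti-P-Tyr/SA-XL-665 is recorded in RFU.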

[6] = average values if tested multiple times

Sequence of FGFR3 (h) (P22607 23-806): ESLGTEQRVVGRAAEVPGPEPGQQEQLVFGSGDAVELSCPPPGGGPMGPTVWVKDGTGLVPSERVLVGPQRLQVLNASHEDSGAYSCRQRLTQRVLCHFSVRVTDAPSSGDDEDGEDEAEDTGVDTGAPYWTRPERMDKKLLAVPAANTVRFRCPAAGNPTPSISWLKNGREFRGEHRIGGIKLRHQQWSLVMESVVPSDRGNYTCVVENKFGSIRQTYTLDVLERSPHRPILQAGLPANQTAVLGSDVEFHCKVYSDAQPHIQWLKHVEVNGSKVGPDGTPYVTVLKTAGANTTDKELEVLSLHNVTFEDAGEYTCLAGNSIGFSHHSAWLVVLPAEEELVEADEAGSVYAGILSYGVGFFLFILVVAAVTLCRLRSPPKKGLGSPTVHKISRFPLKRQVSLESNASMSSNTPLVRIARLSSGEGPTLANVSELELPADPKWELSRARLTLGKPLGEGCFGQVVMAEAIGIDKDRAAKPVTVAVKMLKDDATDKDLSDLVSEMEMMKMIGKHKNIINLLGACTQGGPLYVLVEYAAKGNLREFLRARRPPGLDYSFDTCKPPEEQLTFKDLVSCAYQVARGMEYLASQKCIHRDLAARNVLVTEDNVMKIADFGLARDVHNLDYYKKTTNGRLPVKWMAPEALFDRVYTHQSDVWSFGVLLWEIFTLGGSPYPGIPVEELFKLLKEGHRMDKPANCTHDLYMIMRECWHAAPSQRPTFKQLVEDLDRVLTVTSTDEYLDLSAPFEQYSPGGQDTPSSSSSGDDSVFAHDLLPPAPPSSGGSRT
Sequence of FGFR4 (h) (P22455 22-802): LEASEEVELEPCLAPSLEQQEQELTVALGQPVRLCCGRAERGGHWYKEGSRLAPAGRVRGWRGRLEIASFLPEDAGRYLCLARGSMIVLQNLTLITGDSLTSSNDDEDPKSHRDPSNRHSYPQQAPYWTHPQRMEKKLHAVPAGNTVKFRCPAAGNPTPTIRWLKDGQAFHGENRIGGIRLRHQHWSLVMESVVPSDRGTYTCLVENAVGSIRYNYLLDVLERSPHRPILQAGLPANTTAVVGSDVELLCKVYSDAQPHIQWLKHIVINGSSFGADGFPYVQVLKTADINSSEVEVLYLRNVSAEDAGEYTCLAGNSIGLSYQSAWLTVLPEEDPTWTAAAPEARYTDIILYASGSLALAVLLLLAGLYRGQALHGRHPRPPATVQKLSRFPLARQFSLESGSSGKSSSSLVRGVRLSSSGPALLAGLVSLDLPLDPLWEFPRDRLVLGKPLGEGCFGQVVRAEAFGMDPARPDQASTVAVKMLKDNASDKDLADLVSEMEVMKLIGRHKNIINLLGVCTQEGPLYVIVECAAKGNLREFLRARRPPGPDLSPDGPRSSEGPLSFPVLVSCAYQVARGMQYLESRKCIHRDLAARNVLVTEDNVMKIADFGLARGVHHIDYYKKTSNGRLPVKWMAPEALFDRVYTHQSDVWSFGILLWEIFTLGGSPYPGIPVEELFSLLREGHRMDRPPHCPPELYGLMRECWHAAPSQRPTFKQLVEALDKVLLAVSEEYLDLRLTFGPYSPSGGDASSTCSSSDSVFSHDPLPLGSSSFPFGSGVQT
Sequence of Ba/F3-FGFR4-transfected cells (P22455 whole entry, change not shown): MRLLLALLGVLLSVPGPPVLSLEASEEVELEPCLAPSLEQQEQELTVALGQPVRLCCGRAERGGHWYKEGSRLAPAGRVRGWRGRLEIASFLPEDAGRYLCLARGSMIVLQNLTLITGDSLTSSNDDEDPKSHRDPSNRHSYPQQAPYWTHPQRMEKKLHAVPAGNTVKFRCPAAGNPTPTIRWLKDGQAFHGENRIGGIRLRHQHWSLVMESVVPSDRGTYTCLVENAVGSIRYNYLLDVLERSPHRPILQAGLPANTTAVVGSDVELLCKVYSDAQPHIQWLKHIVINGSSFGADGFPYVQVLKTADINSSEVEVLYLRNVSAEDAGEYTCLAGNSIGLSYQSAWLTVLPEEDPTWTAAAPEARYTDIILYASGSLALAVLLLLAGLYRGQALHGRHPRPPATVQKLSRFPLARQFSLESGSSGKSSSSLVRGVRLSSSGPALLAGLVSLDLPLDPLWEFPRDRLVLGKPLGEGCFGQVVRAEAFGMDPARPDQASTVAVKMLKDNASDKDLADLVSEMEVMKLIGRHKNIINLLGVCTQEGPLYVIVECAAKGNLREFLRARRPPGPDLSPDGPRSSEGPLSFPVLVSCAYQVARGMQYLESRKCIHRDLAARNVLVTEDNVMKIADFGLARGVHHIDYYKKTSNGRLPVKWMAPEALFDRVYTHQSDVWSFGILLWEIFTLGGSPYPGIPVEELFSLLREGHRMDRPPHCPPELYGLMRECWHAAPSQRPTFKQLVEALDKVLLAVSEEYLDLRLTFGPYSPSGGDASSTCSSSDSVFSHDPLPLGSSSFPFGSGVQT
T1 sequence (P22607 whole entry, change not shown): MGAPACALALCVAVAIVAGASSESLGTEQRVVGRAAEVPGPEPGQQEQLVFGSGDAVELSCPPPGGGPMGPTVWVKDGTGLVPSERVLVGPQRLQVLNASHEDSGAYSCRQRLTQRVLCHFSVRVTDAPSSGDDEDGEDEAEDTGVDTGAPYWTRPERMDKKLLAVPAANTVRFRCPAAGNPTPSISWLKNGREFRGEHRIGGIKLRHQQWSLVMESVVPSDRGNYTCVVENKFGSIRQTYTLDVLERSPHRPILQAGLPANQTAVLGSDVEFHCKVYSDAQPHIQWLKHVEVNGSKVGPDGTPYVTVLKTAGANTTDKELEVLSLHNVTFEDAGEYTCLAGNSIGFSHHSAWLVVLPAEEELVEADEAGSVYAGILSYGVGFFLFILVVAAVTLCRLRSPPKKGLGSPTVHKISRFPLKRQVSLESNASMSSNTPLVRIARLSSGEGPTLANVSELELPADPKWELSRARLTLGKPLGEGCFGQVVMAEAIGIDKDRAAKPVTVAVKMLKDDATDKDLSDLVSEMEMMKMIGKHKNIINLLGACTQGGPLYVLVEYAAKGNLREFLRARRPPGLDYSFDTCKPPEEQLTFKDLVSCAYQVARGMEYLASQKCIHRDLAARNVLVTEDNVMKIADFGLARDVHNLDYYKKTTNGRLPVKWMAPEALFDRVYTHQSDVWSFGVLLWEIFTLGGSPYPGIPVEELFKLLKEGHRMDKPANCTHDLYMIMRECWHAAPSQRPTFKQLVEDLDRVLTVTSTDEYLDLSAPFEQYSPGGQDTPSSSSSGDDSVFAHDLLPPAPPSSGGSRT
Sequence of FGFR2 (h) (P21802 22-821): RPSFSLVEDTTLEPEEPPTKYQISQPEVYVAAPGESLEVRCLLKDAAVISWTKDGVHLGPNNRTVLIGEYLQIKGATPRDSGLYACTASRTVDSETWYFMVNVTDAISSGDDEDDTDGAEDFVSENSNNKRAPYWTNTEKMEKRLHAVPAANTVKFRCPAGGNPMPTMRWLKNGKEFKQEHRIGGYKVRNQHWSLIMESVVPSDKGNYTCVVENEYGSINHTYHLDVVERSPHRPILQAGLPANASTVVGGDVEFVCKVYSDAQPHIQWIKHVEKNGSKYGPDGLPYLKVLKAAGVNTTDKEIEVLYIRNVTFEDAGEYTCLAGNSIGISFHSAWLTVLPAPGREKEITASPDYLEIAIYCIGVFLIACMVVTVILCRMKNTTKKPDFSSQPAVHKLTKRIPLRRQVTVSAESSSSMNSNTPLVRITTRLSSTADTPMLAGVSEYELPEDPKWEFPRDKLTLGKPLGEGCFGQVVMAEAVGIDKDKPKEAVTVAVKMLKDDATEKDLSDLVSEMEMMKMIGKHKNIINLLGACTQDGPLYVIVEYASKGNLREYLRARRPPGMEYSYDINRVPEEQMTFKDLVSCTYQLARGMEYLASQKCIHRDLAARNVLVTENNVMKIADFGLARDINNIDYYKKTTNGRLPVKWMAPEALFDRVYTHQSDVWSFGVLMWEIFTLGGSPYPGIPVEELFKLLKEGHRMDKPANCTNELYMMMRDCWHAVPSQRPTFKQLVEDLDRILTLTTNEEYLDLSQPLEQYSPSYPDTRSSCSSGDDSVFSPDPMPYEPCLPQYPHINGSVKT
T2 sequence (P11362 whole entry, change not shown): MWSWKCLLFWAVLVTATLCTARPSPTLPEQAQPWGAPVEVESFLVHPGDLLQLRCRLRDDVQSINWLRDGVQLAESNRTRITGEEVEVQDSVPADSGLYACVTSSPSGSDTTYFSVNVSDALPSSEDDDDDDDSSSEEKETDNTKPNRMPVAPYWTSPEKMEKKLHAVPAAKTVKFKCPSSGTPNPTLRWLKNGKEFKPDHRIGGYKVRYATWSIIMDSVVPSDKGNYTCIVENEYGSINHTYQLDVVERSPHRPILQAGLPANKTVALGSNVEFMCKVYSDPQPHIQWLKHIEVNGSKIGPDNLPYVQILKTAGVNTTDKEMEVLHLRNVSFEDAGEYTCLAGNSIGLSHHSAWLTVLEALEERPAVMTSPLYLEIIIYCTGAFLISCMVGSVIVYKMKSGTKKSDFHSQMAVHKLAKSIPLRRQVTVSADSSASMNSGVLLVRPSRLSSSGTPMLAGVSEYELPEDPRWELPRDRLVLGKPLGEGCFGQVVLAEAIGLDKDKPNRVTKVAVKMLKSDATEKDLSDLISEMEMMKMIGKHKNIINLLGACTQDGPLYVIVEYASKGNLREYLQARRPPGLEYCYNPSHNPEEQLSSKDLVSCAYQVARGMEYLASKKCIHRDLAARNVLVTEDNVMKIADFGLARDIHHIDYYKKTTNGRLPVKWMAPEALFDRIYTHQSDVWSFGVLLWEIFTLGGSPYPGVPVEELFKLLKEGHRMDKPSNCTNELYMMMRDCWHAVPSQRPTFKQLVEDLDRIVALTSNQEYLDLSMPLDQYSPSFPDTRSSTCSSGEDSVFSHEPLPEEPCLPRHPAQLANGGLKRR

Row | Structure (SMILES) | IC50 (FGFR2 (h); [6]) | pIC50 (FGFR4 (h); [6]) | IC50 [1] | IC50 (FGFR3 (h); [6]) | BAF3-FGFR3 (MIN IL3) pIC50 [2] | IC50 [3] | BAF3-FGFR1 (MIN IL3) pIC50 [4] | BAF3-FGFR4 pIC50 [5] | IC50 (KDR (h); [6]) | IC50 (FGFR2 (h)) | pIC50 (FGFR4 (h)) | IC50 (FGFR3 (h)) | IC50 (KDR (h))
1 | COc1cc(/N=c2\ccc3ncc(-c4cnn(C)c4)nc3n2Cc2cc[nH]n2)c(F)c(OC)c1 [Compound 115] | 1.58 nM | 9.03 | > 10000 nM | 0.851 nM | 7.82 | > 10000 nM | ~8.17 | ~7.59 | 5.89 nM | – | – | – | –
2 | COc1cc(OC)c(F)c(N(Cc2nncn2C)c2ccc3ncc(-c4cnn(C)c4)nc3n2)c1 [Compound 132] | – | – | > 10000 nM | – | ~6.64 | > 10000 nM | 6.62 | ~6.13 | – | 3.02 nM | 7.76 | 4.27 nM | 42.7 nM
3 | COc1cc(OC)c(F)c(N(CCN)c2ccc3ncc(-c4cnn(C)c4)nc3n2)c1F [Compound 67] | 1.78 nM | 8.56 | > 10000 nM | 1.2 nM | 7.83 | > 10000 nM | 8.20 | 7.37 | 14.5 nM | – | – | – | –
4 | COc1cc(OC)c(F)c(N(CCCN2CCCC2=O)c2ccc3ncc(-c4cnn(C)c4)nc3n2)c1 [Compound 120] | – | – | > 10000 nM | – | 7.16 | > 10000 nM | 7.27 | 6.84 | – | 3.02 nM | 8.49 | 1.86 nM | 19.1 nM
5 | COc1ccc(Cl)c(N(Cc2ncc[nH]2)c2ccc3ncc(-c4cnn(C)c4)nc3n2)c1Cl [Compound 65] | ~11.2 nM | ~6.45 | > 10000 nM | 34.7 nM | 6.04 | > 10000 nM | 5.97 | 5.21 | 191 nM | – | – | – | –
6 | COc1cc(OC)c(F)c(N(CC2CCC(=O)N2)c2ccc3ncc(-c4cnn(C)c4)nc3n2)c1F (stereo not drawn) [Compound 192] | 2.51 nM | 8.68 | > 10000 nM | 1.55 nM | 7.78 | > 10000 nM | 7.73 | 7.01 | 13.8 nM | – | – | – | –
7 | COc1cc(OC)c(F)c(N(CC(O)COC(C)C)c2ccc3ncc(-c4cnn(C)c4)nc3n2)c1F (stereo not drawn) [Compound 63] | 6.17 nM | 8.22 | > 10000 nM | 6.31 nM | 7.97 | > 10000 nM | 7.90 | 7.49 | 15.8 nM | – | – | – | –
8 | COc1cc(OC)c(F)c(N(c2ccc3ncc(-c4cnn(C)c4)nc3n2)C(CO)COC(C)C)c1 (single isomer, unassigned) [Compound 76] | 468 nM | 6.67 | > 10000 nM | 105 nM | 5.64 | > 10000 nM | 5.55 | 5.20 | > 1000 nM | – | – | – | –
9 | CNCCn1/c(=N/c2c(Cl)ccc(OC)c2Cl)ccc2ncc(-c3cnn(C)c3)nc21 [Compound 84] | 126 nM | 5.45 | > 10000 nM | 363 nM | ~5.11 | > 10000 nM | 5.15 | <5 | > 1000 nM | – | – | – | –
10 | COc1cc(/N=c2\ccc3ncc(-c4cnn(C)c4)nc3n2CCCN2CCCC2=O)c(F)c(OC)c1 [Compound 119] | – | – | > 3980 nM | – | ~8.07 | > 3980 nM | ~7.92 | 7.28 | – | 1.86 nM | 9.00 | 0.708 nM | 6.17 nM
11 | COc1cc(OC)c(F)c(N(Cc2ccn(C)n2)c2ccc3ncc(-c4cnn(C)c4)nc3n2)c1 [Compound 128] | – | – | > 10000 nM | – | 8.03 | > 10000 nM | 8.10 | 7.12 | – | 1.55 nM | 8.89 | 1.05 nM | 7.94 nM
